Here are results for 5 compounds from patent US9815774B1, “Hydrodabcyl” (Universität Bayreuth, priority 2014, dated 2017).

≈ marks a conversion by molar mass, not a printed value. Where “and” joins values, the source holds several entries; their conditions need not be identical. Equal entries are not always repeated. Where two headings read alike, the source gives them in different places.

For one series, the system named is CHF. Nature of the series: Cytotoxicity assay, CHF. It counts as cell-based. The following applies: incubation for 72 hours, 5 to 100 μM. Here is the method: (§1) Three different cell culture types were incubated with various concentrations (from 5 to 100 μM) of Hydrodabcyl.
In the next series the test system is HT-29. Nature of the series: Cytotoxicity assay, HT-29. It counts as cell-based. The conditions noted are these: Homo sapiens, incubation for 72 hours, 5 to 100 μM. Here is the method:
as §1

Series [1] in a line: Solubility tests in water and buffered aqueous solutions. It counts as physicochemical. The conditions noted are these: for solubility: 50 mM NaP buffer, pH 8.0. The source says: The excellent solubility of the bare chromophore in aqueous solution already confers to Hydrodabcyl several practical advantages, e.g., aqueous solutions of Hydrodabcyl are easier to prepare and glassware can be more readily cleansed. Nevertheless, in most of applications the chromophores are linked to the molecules of interest. For example, to monitor protease activity chromophores are usually linked to the peptidic substrate. Both dabcyl and Hydrodabcyl can be easily coupled to an amino group through a standard amide bond formation. […] To investigate the behavior of dabcyl and Hydrodabcyl coupled to an amino acid bearing an amino group, dabcyl and Hydrodabcyl were linked to the amino group of a Lys side chain, and the solubility of the Lys-dabcyl and Lys-Hydrodabcyl moieties in a buffered aqueous solution at pH 8 were tested.
Buffered solutions (50 mM sodium phosphate) have been prepared at four different pH: 8.0, 7.0, 6.0 and 5.5, respectively. The amount of Hydrodabcyl required to reach a concentration of 5 mM was immersed in each buffer solution and kept for 1 h at 30° C. in an ultrasonic bath. […] To confirm its solubility, the absorbance of Hydrodabcyl was monitored as function of its concentration. Since the stock solution was too concentrated to be measured directly, three diluted solutions with different concentrations (10 μM, 20 μM and 30 μM) were prepared from each stock solution at pH 8.0, pH 7.0 and pH 6.0. The aliquots have been taken from different part of the volume of the stock solution to test the homogeneity.
To reach complete solubility at pH<6.0, the pH of the stock solution (5 mM range) at pH 7.0 was decreased at the desired value with few drops of 5M HCl. Following gradual acidification of the medium the mM solution of Hydrodabcyl remained clear till pH 4.3. […] At pH<4.3 Hydrodabcyl precipitates.

The next series concerns EaHy.926. Briefly: Cytotoxicity assay, EaHy.926. The series is classed as cell-based. The following applies: Homo sapiens, EA.hy 926, incubation for 72 hours, 5 to 100 μM. As for the experimental part:
as §1

Series [2] can be described thus: Stability under light exposure. The conditions noted are these: for effect of light exposure on absorption spectrum: 17.5 μM in DMSO, 5 minutes, 60 W tungsten lamp; for absorbance under 2-hour continuous irradiation at absorption maximum: spectrophotometer beam, 7200 s. It counts as physicochemical. As for the experimental part: The effect of exposure to the light beam of a commercial spectrophotometer was tested to mimic the common experimental condition.
One solution of dabcyl and one of Hydrodabcyl, both at 17.5 μM in DMSO prepared in the dark, were exposed for 5 minutes to the light of a common 60 W tungsten lamp.

In series [3] the test system is circular and linear double-stranded DNA pBR322. Briefly: Electrophoretic Mobility Shift Assay (EMSA). The following applies: 24 h incubation, 0, 5, 10, 25, 50 μM, agarose gel. The series is classed as binding. As for the experimental part:
The DNA was incubated for 24 hours with various concentrations (0, 5, 10, 25, 50 μM) of (a) doxorubicin and (b) Hydrodabcyl. FIGS. 6a and 6b show the ethidium bromide staining of DNA separated by agarose gel electrophoresis. […] The DNA was incubated for 24 hours with various concentrations (0, 5, 10, 25, 50 μM) of (a) doxorubicin and (b) Hydrodabcyl. FIGS. 7a and 7b show the ethidium bromide staining of DNA separated by agarose gel electrophoresis. […] Circular and linear double-stranded DNA was incubated with various concentrations of Hydrodabcyl and doxorubicin (a known intercalating substance). After 24 h of incubation time, agarose gel electrophoresis was carried out.

The nature of the next series: Absorption spectra. The series is classed as physicochemical. The conditions noted are these: for ε (molar absorbance): 20° C. As for the experimental part:
Double beam Perkin Elmer Lambda 750 UV/Vis spectrophotometer equipped with a thermostated cuvette holder was used to record the absorption spectra over a wavelength range 200-800 nm at 20° C.
The quartz cuvettes with 1 cm light path used were from Hellma.

Series [4] in a line: Solubility tests in water and buffered aqueous solutions. The conditions noted are these: for appearance in water: about 7 μM. It counts as physicochemical.
The test system of series [5] is oocytes of Xenopus laevis. Briefly: Influence on embryogenesis of injected oocytes. The series is classed as in vivo. The following applies: conclusion from Table 2. As for the experimental part: Two sorts of labelled molecules were injected into oocytes of Xenopus laevis: • A molecule labelled with monobromobimane (mBBr; a fluorescent dye, which emits light in the absorption spectrum of Hydrodabcyl); the molecule is called Substrate-Bim • A molecule labelled with mBBr and Hydrodabcyl (a fluorescence quencher); the molecule is called Bim-Substrate-Hydrodabcyl The effect on embryogenesis of the molecules injected into the oocytes as described in Example 5 was observed.

For series [6] the following is noted: water, reported [8]; cited from earlier work.
The mark [7] stands for this setting: sodium phosphate buffer, aqueous buffer, thermodynamic from solid, read-out: Solubility.

As for `CN(C)c1cc(O)c(/N=N/c2ccc(C(=O)O)c(O)c2)c(O)c1` [Hydrodabcyl, 4-((4′-(dimethylamino)2′,6′-dihydroxyphenyl)azo)2-hydroxybenzoic acid], the IC50 was > 100 µM in the series on CHF, > 50 µM with HT-29 and > 50 µM in the series on EaHy.926. Besides, the “dissolution at 5 mM, direct preparation” value is recorded as “not completely soluble” in series [1] (50 mM sodium phosphate pH 5.5, 1 h at 30° C. ultrasonic bath); “Clear solutions” in series [1] (50 mM sodium phosphate pH 6.0, 1 h at 30° C. ultrasonic bath); “Clear solutions” in series [1] (50 mM sodium phosphate pH 7.0, 1 h at 30° C. ultrasonic bath); “Clear solutions” in series [1] (50 mM sodium phosphate pH 8.0, 1 h at 30° C. ultrasonic bath). Also, the solubility thermodynamic in series [1] (aqueous buffer, thermodynamic from solid, buffered aqueous solution at pH 8, read-out: concentration of saturated solution) worked out at 25000 µM (≈ 7930 µg/mL). For the same compound, the solubility in series [1] (setting [7]) worked out at 25400 µM (≈ 8060 µg/mL); in series [4] (thermodynamic from solid, Water, 20° C., pH = 4.5, read-out: Solubility), 571 µM (≈ 181 µg/mL). In series [2], the “effect of light exposure on absorption spectrum” value is “no effect on the absorption spectrum”. The “absorbance under 2-hour continuous irradiation at absorption maximum” value in [2] (DMSO, 20° C.) is “constant signal”. The “shift of DNA bands / intercalation into DNA” value in [3] is recorded as “does not intercalate or bind to the DNA”. Besides, the “ε (molar absorbance)” value turned out to be 43000 ± 1000 L/mol/cm in the series “Absorption spectra” (50 mM sodium phosphate buffer pH=8.0, 2×10^−5 M, at 445 nm) and 37000 ± 1000 L/mol/cm in “Absorption spectra” (DMSO, 2×10^−5 M, at 470 nm). Moreover, the λmax in the series “Absorption spectra” (2×10^−5 M in DMSO at 20° C.) stood at 470 nm; in the series “Absorption spectra” (aqueous solution, 50 mM sodium phosphate buffer pH=8.0, 20° C.), 445 nm. The “ε470 (molar absorbance)” value in “Absorption spectra” (DMSO) was 37000 M⁻¹ cm⁻¹. In addition, the “ε445 (molar absorbance)” value in “Absorption spectra” (aqueous solution) stood at 43000 M⁻¹ cm⁻¹. The appearance in water entry in series [4] (water) is given as “clear solution”. Further, the influence on embryogenesis result in [5] is reported as “does not influence embryogenesis”.

As for `NCCCC[C@H](N)C(=O)O` [L-Lys, reference compound], the solubility entry in series [4] (water, converted from 5.8 g per 1 kg) is on record as “about 40 mM”; in series [6], 5.8 g per 1 kg of water.

As to `CN(C)c1ccc(N=Nc2ccc(C(=O)NCCCCC(N)C(=O)O)cc2)cc1` (stereo not shown) [Lys-dabcyl, reference compound], in [1], the solubility was 7.6 µM and 7.62 µM.

For `CN(C)c1ccc(/N=N/c2ccc(C(=O)O)cc2)cc1` [dabcyl, 4-(4′-dimethylamino-phenylazo)benzoic acid], the solubility in series [1] (setting [7]) is 541 µM (≈ 146 µg/mL). Moreover, the “effect of light exposure on absorption spectrum” value in [2] is on record as “strongly modify the absorption spectrum”. For the same compound, in series [2] (DMSO, 20° C.), the “absorbance under 2-hour continuous irradiation at absorption maximum” value is “constant signal”. The “time in the dark to recover original spectrum” value in [2] (after 5 min 60 W tungsten lamp, DMSO, 20° C.) is 10 min. In the series “Absorption spectra” (2×10^−5 M in DMSO at 20° C.), this compound came in with a λmax of 451 nm. For the same compound, the appearance in water result in series [4] (water) is on record as “precipitation”.

`COc1cccc2c1C(=O)c1c(O)c3c(c(O)c1C2=O)C[C@@](O)(C(=O)CO)C[C@@H]3O[C@H]1C[C@H](N)[C@H](O)[C@H](C)O1` [doxorubicin, reference compound]: the “shift of DNA bands / intercalation into DNA” value in series [3] was “shift of the DNA bands with increasing doxorubicin concentration”.
